According to PMC7614683, “A small molecule PI3Kα activator for cardioprotection and neuroregeneration” (Nature, 2023):
Like-named read-outs stand apart in the source and are kept apart here.

Columns and labels:
Test in all cases: SelectScreen Z-LYTE kinase activity assay (SI Table 6)
Assay type in all cases: biochemical
[1] = molecular target: T1, protein kinases of the Z-LYTE panel (Homo sapiens, UniProt Q9UHD2)
T1 sequence (Q9UHD2 1-729): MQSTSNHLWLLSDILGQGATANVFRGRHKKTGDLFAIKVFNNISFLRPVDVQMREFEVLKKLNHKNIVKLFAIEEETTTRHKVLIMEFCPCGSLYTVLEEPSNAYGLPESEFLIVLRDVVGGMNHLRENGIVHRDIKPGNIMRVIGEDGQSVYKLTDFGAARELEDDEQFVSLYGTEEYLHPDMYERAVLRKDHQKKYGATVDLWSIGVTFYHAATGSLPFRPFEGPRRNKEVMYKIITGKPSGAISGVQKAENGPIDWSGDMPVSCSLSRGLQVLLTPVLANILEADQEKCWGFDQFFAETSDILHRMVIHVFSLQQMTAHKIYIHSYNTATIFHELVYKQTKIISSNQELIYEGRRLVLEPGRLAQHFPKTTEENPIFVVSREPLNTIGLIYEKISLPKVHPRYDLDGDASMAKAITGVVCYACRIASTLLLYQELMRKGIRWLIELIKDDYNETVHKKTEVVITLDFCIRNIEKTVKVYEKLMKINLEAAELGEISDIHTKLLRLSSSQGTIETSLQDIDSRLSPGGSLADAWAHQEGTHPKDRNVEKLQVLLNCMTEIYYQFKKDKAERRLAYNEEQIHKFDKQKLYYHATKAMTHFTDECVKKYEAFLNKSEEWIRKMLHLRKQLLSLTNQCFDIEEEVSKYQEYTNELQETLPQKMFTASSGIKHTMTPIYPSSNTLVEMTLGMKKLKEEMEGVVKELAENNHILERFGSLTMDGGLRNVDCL
Experimental: (§1) 133 protein kinases and 7 lipid kinases were counterscreened, with 1938 used at 1 μM, using the Adapta, Lantha and Z-LYTE assays (SelectScreen Kinase Profiling Service; Thermofisher – experimental details of these assays can be found here: https://www.thermofisher.com/uk/en/home/industrial/pharma-biopharma/drug-discovery-development/target-and-lead-identification-and-validation/kinasebiology/kinase-activity-assays.html. The tree represention in KinMap[59] generated courtesy of Cell Signaling Technology, Inc. (www.cellsignal.com). mTORC1 (mTOR/RAPTOR/LST8) protein complex and ATM kinase and substrates were produced as previously described[57],[60]. Screening of 1938 was conducted using SuperSep Phos-Tag 50 μmol/l 100 x 100 x 6.6 mm 17-well (192-18001/199-18011) gels. For ATM assays, 100 nM ATM was incubated for 30 min at 30°C with 5 μM GST-p53 and 1 mM ATP, in the absence or presence of 200 μM 1938 in ATM Kinase Buffer (50 mM HEPES pH 7.5, 100 mM NaCl, 10% glycerol, 2 mM […], 5 mM MgCl2). As a positive control for ATM activation, the same reaction was carried out with 100 nM ATM/5 μM GST-p53/1 mM ATP in the presence of 100 nM Mre11-Rad50-Nbs1 (MRN) complex, a known activator of ATM[61]. For mTORC1 assays, 50 nM mTORC1 complex (mTOR/LST8/RAPTOR) was incubated for 3 h at 30°C with 15 μM 4E-BP1, 10 mM MgCl2 and 250 μM ATP, in the absence or presence of 200 μM 1938. As a ‘positive’ control, a higher concentration (150 nM) of mTORC1 complex (mTOR/LST8/RAPTOR) was incubated for 3 h at 30°C with 15 μM 4E-BP1, 10 mM MgCl2 and 250 μM ATP. Kinase reactions were quenched by addition of SDS-PAGE Loading Buffer (as per manufacturer’s instructions) and freezing at -20°C before being run on the Phos-tag gels at 150 V for 90 min. Gels were then stained using InstantBlue™ Coomassie, and quantified using BioRad Image Lab Software. Kinase assays were carried out in triplicate.

[2] = molecular target: protein kinases of the Z-LYTE panel (Homo sapiens, UniProt P53350)
Chain of protein kinases of the Z-LYTE panel (Homo sapiens, UniProt P53350) (P53350 whole entry): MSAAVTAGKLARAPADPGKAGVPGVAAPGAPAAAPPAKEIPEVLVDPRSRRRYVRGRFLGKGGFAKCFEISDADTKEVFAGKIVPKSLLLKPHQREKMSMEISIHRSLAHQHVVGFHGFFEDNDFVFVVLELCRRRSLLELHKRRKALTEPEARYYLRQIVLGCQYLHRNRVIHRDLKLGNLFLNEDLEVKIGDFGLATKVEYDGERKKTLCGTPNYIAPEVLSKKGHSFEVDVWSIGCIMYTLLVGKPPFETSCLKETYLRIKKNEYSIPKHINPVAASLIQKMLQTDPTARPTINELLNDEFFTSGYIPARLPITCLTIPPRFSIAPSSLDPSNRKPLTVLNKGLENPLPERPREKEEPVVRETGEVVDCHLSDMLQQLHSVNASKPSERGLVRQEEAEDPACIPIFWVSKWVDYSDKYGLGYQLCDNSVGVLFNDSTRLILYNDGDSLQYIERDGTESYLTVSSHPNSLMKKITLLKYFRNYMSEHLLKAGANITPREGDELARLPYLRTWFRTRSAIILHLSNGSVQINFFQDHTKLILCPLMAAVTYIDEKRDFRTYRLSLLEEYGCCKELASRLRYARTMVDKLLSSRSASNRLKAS
Experimental: as §1

[3] = molecular target: protein kinases of the Z-LYTE panel (Homo sapiens, UniProt Q13554)
Chain of protein kinases of the Z-LYTE panel (Homo sapiens, UniProt Q13554) (Q13554 whole entry): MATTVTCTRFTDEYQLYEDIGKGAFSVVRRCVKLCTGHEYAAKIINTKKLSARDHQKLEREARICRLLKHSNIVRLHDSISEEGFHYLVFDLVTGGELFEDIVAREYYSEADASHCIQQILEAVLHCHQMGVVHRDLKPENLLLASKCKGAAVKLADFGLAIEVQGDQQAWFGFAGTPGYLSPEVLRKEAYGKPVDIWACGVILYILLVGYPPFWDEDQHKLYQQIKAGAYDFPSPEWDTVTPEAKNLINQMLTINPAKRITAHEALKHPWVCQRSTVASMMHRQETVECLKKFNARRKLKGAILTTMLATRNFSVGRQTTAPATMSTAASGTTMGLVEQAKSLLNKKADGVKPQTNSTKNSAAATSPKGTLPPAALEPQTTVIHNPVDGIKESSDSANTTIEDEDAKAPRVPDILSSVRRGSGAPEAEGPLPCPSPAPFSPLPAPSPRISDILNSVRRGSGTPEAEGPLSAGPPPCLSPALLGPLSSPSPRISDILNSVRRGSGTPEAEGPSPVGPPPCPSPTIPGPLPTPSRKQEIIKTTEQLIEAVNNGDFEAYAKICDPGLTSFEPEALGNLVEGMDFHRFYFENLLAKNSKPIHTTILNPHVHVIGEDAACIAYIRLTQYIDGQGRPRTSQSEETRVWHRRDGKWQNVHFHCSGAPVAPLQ
Experimental: as §1

[4] = molecular target: T2, protein kinases of the Z-LYTE panel (Homo sapiens, UniProt Q02156)
T2 sequence (Q02156 1-737): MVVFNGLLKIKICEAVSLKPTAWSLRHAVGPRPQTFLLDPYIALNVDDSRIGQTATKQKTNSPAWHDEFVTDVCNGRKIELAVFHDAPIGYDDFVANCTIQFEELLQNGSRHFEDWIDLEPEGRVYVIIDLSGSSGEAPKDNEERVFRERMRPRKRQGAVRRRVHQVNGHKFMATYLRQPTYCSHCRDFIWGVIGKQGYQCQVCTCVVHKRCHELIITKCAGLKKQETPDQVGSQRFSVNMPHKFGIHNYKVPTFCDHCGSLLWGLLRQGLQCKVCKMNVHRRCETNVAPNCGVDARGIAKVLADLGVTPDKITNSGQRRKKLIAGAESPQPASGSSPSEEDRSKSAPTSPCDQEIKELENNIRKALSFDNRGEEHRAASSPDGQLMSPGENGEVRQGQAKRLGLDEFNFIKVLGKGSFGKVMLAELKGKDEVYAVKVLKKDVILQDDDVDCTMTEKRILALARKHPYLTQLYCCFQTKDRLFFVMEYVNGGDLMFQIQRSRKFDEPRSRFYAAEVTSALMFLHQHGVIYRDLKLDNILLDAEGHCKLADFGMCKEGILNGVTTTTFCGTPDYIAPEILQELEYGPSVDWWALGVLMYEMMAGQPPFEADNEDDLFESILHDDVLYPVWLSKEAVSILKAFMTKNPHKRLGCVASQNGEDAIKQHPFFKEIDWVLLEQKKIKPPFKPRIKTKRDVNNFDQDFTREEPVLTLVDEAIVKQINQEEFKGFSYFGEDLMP
Experimental: as §1

With CCN1CCN(c2ccc(Nc3cc(Nc4cccc5c4N(C(C)=O)CC5)ccn3)cc2)CC1 [Compound 1938] the inhibition at 1 µM ([1]; read-out: % Inhibition Point 1) was 4%, the inhibition at 1 µM ([1]; read-out: % Inhibition Point 2) was 7.54% and the inhibition at 1 µM ([1]; read-out: % Inhibition mean) was 6%. The inhibition at 1 µM ([2]; read-out: % Inhibition Point 1) was 2.86%, the inhibition at 1 µM ([2]; read-out: % Inhibition Point 2) was 3.28% and the inhibition at 1 µM ([2]; read-out: % Inhibition mean) was 3%. For the same compound, the inhibition at 1 µM ([3]; read-out: % Inhibition Point 1) was 8%, the inhibition at 1 µM ([3]; read-out: % Inhibition Point 2) was 6% and the inhibition at 1 µM ([3]; read-out: % Inhibition mean) was 7%. For the same compound, the inhibition at 1 µM ([4]; read-out: % Inhibition Point 1) was 1%, the inhibition at 1 µM ([4]; read-out: % Inhibition Point 2) was 2% and the inhibition at 1 µM ([4]; read-out: % Inhibition mean) was 1.57%.
